What is called IC50 is the concentration that gives 50% inhibition. Higher therefore signals weaker potency in that assay.

Where only a bound is given, the exact number is not on record here.

Experimental findings from patent US20220274967A1, “BCAT MODULATION” (Icagen, LLC, priority 2019, published 2022) are described below.

For assay [1], the target named is T1, BCAT2 (Homo sapiens, UniProt O15382).
T1 sequence (O15382 28-392): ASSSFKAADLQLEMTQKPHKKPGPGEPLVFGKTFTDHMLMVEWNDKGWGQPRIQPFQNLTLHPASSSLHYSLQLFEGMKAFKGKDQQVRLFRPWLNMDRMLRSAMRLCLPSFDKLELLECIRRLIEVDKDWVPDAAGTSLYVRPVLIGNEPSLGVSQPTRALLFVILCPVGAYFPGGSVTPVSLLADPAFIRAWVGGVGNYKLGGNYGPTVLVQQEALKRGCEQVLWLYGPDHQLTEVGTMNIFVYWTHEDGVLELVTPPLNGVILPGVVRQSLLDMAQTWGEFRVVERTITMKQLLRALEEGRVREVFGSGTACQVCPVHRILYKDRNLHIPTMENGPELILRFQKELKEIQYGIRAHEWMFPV
Briefly: BCAT2 enzyme inhibition (human). It is filed as biochemical. Summed up: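 Cell-free coupled fluorescent assay: human BCATm converts branched-chain amino acids and α-ketoglutarate to L-glutamate, which L-glutamate oxidase and HRP link to resorufin formation from Amplex Red; activity taken as reduced glutamate signal.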

Assay [2] deals with T2, BCAT1 (Homo sapiens, UniProt P54687).
T2 sequence (P54687 1-386): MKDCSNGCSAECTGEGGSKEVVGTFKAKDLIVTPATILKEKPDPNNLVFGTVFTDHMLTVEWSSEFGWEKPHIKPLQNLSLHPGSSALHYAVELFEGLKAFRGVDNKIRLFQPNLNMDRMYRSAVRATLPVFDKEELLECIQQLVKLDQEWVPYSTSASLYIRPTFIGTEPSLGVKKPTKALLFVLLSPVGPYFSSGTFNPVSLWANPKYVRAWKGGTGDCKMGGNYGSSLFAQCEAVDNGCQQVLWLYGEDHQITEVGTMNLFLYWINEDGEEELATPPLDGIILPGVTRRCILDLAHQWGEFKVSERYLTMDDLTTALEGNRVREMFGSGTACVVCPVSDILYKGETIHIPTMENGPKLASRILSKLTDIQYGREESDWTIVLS
Briefly: BCAT1 enzyme inhibition (human), Glutamate Glo luminescence. The format is biochemical. In short, it runs like this: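 BCAT1 enzyme (0.06 ug/ml final) was preincubated with compound (3-0.0001 μM, 0.3% DMSO) for 10 or 60 min at room temperature in 50 mM Tris/0.05% TWEEN-20. The reaction then ran 10 min with 300 μM L-leucine and 250 μM alpha-ketoglutaric acid, was acid-quenched, and glutamate was read by luminescence. IC50 came from a 4-parameter fit, normalized to 10 μM VS558CSA inhibition.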

Turning to `CNC(=O)c1ccc2c(c1)nc(-c1cccc(F)c1)n2[C@H]1CCC[C@@H](NC(=O)c2ccc(Br)s2)C1` [Compound 154], the half-maximal inhibitory concentration (IC50) is below 100 nM in assay [1] and at least 1000 nM in assay [2].

As to `CNC(=O)c1ccc2c(c1)nc(-c1ccccn1)n2[C@@H]1CCC[C@H](NC(=O)c2ccc(C#N)s2)C1` [Compound 112], the IC50 in assay [1] is 100 to 500 nM; in assay [2], at least 1000 nM.

On to `CNC(=O)c1ccc2c(c1)nc(-c1ccccc1C)n2[C@H]1CCC[C@@H](NC(=O)c2ccc(Br)s2)C1` [Compound 135], for which the results for the IC50 in assay [1] and in assay [2] were below 100 nM and at least 1000 nM, respectively.

Regarding `CNC(=O)c1cc2nc(-c3ccccc3C#N)n([C@H]3CCC[C@@H](NC(=O)c4ccc(Br)s4)C3)c2cc1F` [Compound 157], the IC50 in assay [1] and in assay [2] was below 100 nM each time.

For `CNC(=O)c1cc2nc(-c3ccccc3C)n([C@H]3CCC[C@@H](NC(=O)c4ccc(Br)s4)C3)c2cc1F` [Compound 208], the IC50 was below 100 nM in assay [1] and 100 to 500 nM in assay [2].

For `COC(=O)c1cc2nc(-c3ccccn3)n([C@@H]3CCC[C@H](NC(=O)c4ccc(Br)s4)C3)c2cn1` [Compound 291], the half-inhibitory concentration (IC50) in assay [1] was below 100 nM; in assay [2] it was 100 to 500 nM.

Consider `CNC(=O)c1cc2nc(-c3ccccc3F)n([C@H]3CCC[C@@H](NC(=O)c4ccc(Br)s4)C3)c2cc1F` [Compound 207], for which the IC50 in assay [1] and in assay [2] was below 100 nM throughout.

As for `CNC(=O)c1ccc2c(c1)nc(-c1ccccc1C#N)n2[C@H]1CCC[C@@H](NC(=O)c2ccc(Br)s2)C1` [Compound 137], the IC50 in assay [1] and in assay [2] was below 100 nM throughout.

Consider `CNC(=O)c1ccc2c(c1)nc(-c1cccc(F)c1O)n2[C@H]1CCC[C@@H](NC(=O)c2ccc(Br)s2)C1` [Compound 163], for which the half-inhibitory concentration (IC50) in assay [1] is below 100 nM; in assay [2] it was at least 1000 nM.

For `CNC(=O)c1ccc2c(c1)nc(-c1ccccc1C)n2[C@H]1CCC[C@@H](NC(=O)c2ccc(C#N)s2)C1` [Compound 134], the IC50 in assay [1] was below 100 nM; in assay [2] it was at least 1000 nM.

For the compound `COC(=O)c1ccc2c(c1)nc(-c1ccccn1)n2[C@@H]1CCC[C@H](NC(=O)c2ccc(Br)s2)C1` [Compound 109], the IC50 in assay [1] is 100 to 500 nM; in assay [2], at least 1000 nM.

As for `CNC(=O)c1cc2nc(-c3ccccn3)n([C@H]3CCC[C@@H](NC(=O)c4ccc(Br)s4)C3)c2cc1F` [Compound 155], the IC50 in assay [1] was below 100 nM; in assay [2], 100 to 500 nM.

As to `CNC(=O)c1ccc2c(c1)nc(-c1ccccc1C#N)n2[C@H]1CCC[C@@H](NC(=O)c2ccc(Br)s2)C1` [Compound 136], the IC50 in assay [1] was below 100 nM; in assay [2], 100 to 500 nM.

With `CNC(=O)c1ccc2c(c1)nc(-c1ccccc1C#N)n2[C@H]1CCC[C@@H](NC(=O)c2ccc(C#N)s2)C1` [Compound 138], the IC50 was below 100 nM in assay [1] and 500 to 1000 nM in assay [2].

`CNC(=O)c1cc2nc(-c3ccccn3)n([C@H]3CCC[C@@H](NC(=O)c4ccc(Br)s4)C3)c2cn1` [Compound 292]: the IC50 in assay [1] was below 100 nM; in assay [2] it was 100 to 500 nM.

For the compound `CNC(=O)c1ccc2c(c1)nc(-c1ccccc1C#N)n2[C@H]1CCC[C@@H](NC(=O)c2ccc(C#N)s2)C1` [Compound 139], the half-inhibitory concentration (IC50) in assay [1] is below 100 nM; in assay [2], 100 to 500 nM.

With `CNC(=O)c1ccc2c(c1)nc(-c1ccccc1F)n2[C@H]1CCC[C@@H](NC(=O)c2ccc(Br)s2)C1` [Compound 145], the IC50 in assay [1] was below 100 nM; in assay [2], 100 to 500 nM.

With `CNC(=O)c1ccc2c(c1)nc(-c1c(O)cccc1F)n2[C@H]1CCC[C@@H](NC(=O)c2ccc(Br)s2)C1` [Compound 184], the IC50 in assay [1] is below 100 nM; in assay [2] it was 100 to 500 nM.

Turning to `C#Cc1ccccc1-c1nc2cc(C(=O)NC)ccc2n1[C@H]1CCC[C@@H](NC(=O)c2ccc(Br)s2)C1` [Compound 151], the IC50 was below 100 nM in assay [1] and 500 to 1000 nM in assay [2].

On to `CNC(=O)c1ccc2c(c1)nc(-c1ccccc1C=O)n2[C@H]1CCC[C@@H](NC(=O)c2ccc(Br)s2)C1` [Compound 161], for which the IC50 in assay [1] is below 100 nM; in assay [2], 100 to 500 nM.
